According to DBAASP:
≈ marks a conversion by molar mass, not a printed value. One block for each compound: values may come before it.

What was measured:
Assay in all cases: ≥ marks a high value that may be exact or a test limit, other limits are often not marked, values filed in µg/mL are converted to µM
[1] = system: Escherichia coli ATCC 25922
[2] = system: Staphylococcus aureus ATCC 25923
[3] = system: Candida albicans NCTC 3179
[4] = system: Klebsiella pneumoniae ATCC 13883
[5] = system: Candida albicans ATCC 90028
[6] = system: Cryptococcus neoformans ATCC 208821
[7] = system: Klebsiella pneumoniae ATCC 700603
Klebsiella pneumoniae = system: Klebsiella pneumoniae
Pseudomonas aeruginosa = system: Pseudomonas aeruginosa
[8] = system: Staphylococcus aureus ATCC 43300
[9] = system: Pseudomonas aeruginosa ATCC 27853
[10] = system: Klebsiella pneumoniae ATCC BAA-2146
Acinetobacter baumannii = system: Acinetobacter baumannii
[11] = system: Bacillus subtilis ATCC 6051
[12] = system: Acinetobacter baumannii ATCC 19606
[13] = system: Xanthomonas campestris pv. citri
Rhizoctonia solani = system: Rhizoctonia solani
[14] = system: Pseudomonas syringae pv. tabaci
Ramulariopsis gossypii = system: Ramulariopsis gossypii
Fusarium oxysporum = system: Fusarium oxysporum
[15] = system: Fusarium oxysporum f.sp. vasinfectum
[16] = system: Bacillus cereus ATCC 14579
[17] = system: Cryptococcus neoformans ATCC 28957
[18] = system: Bacillus subtilis ATCC 23857
[19] = system: Pectobacterium carotovorum
Fusarium solani = system: Fusarium solani
Trichoderma asperellum = system: Trichoderma asperellum
[20] = system: Staphylococcus aureus RN4220
[21] = system: Campylobacter jejuni NCTC 11351
[22] = system: Staphylococcus aureus ATCC 29213
[23] = system: Klebsiella pneumoniae Q14-0095
[24] = system: Listeria monocytogenes NCTC 11994
[25] = system: Pseudomonas aeruginosa PAO1
[26] = system: Salmonella typhimurium SL1344
[27] = system: Klebsiella pneumoniae NCTC 13442
[28] = system: Acinetobacter baumannii Q12-0867
[29] = system: Pseudomonas aeruginosa Q14-0890
[30] = system: Acinetobacter baumannii Q13-0717
[31] = system: Klebsiella pneumoniae Q14-0285
[32] = system: Staphylococcus aureus ATCC 33591
[33] = system: Staphylococcus aureus USA 300
[34] = system: Campylobacter jejuni ATCC 33292
[35] = system: Pseudomonas aeruginosa Q12-0535
[36] = system: Staphylococcus aureus NCTC 12493
[37] = system: Campylobacter jejuni NCTC 11161
[38] = system: Enterococcus faecalis JH-2-2
[39] = system: Pseudomonas aeruginosa Q14-0208
[40] = system: Staphylococcus aureus Q14-0320
Escherichia coli = system: Escherichia coli
[41] = system: Acinetobacter baumannii Q12-0809
[42] = system: Staphylococcus aureus MRSA-15
Escherichia coli K-12 = system: Escherichia coli K-12

MIC [1]: 2.03 µM (≈ 5.6 µg/mL)
MIC [2]: 11.2 µM (≈ 31 µg/mL)
MIC [3]: ≥ 90.6 µM
Compound: CC[C@H](C)[C@H](NC(=O)[C@H](C)NC(=O)[C@H](CC(=O)O)NC(=O)[C@H](CC(C)C)NC(=O)[C@H](CC(N)=O)NC(=O)[C@H](C)N)C(=O)N[C@H](C(=O)N[C@@H](CCCCN)C(=O)N[C@H](C(=O)N[C@@H](CCC(N)=O)C(=O)N[C@@H](C)C(=O)N[C@@H](Cc1c[nH]c2ccccc12)C(=O)N[C@@H](C)C(=O)N[C@@H](CCCN=C(N)N)C(=O)N[C@@H](CCSC)C(=O)N[C@@H](Cc1c[nH]c2ccccc12)C(=O)N[C@@H](C)C(=O)N[C@@H](C)C(=O)N[C@@H](CCCN=C(N)N)C(=O)N[C@@H](CCCN=C(N)N)C(=O)N[C@@H](CCC(N)=O)C(=O)N[C@@H](Cc1ccc(O)cc1)C(=O)N[C@@H](CC(C)C)C(=O)O)[C@@H](C)CC)[C@@H](C)CC [ANLDAIIKIQAWARMWAARRQYL]

MIC [4]: 0.925 µM (≈ 2 µg/mL)
MIC [1]: 0.231 µM (≈ 0.499 µg/mL)
MIC [5]: 7.4 µM (≈ 16 µg/mL)
MIC [6]: 1.85 µM (≈ 3.99 µg/mL)
MIC [7]: 3.7 µM (≈ 7.99 µg/mL)
MIC (Klebsiella pneumoniae): > 7.4 µM
MIC (Pseudomonas aeruginosa): 7.4 µM (≈ 16 µg/mL)
MIC [8]: 7.4 µM (≈ 16 µg/mL)
MIC [9]: 3.7 µM (≈ 7.99 µg/mL)
MIC [10]: 3.7 µM (≈ 7.99 µg/mL)
MIC (Acinetobacter baumannii): 0.925 µM (≈ 2 µg/mL)
MIC [11]: 0.231 µM (≈ 0.499 µg/mL)
MIC [12]: 0.462 µM (≈ 0.998 µg/mL)
Compound: CC[C@H](C)[C@@H]1NC(=O)CNC(=O)[C@H](CCCN=C(N)N)NC(=O)CNC(=O)[C@@H]2CSSC[C@H](NC1=O)C(=O)N[C@@H](Cc1ccc(O)cc1)C(=O)N[C@@H](CCCN=C(N)N)C(=O)N[C@@H](CCCN=C(N)N)C(=O)N[C@H](C(=O)N[C@@H](CCCN=C(N)N)C(=O)O)CSSC[C@H](NC(=O)[C@H](Cc1c[nH]c3ccccc13)NC(=O)[C@@H](N)CCCCN)C(=O)N[C@@H](Cc1ccccc1)C(=O)N[C@@H](CCCN=C(N)N)C(=O)N[C@@H](C(C)C)C(=O)N2 [KWCFRVCGRGICYRRCR]

MIC [1]: 2 µM (≈ 4.92 µg/mL)
MIC [5]: 4 µM (≈ 9.84 µg/mL)
MIC [13]: 4 µM (≈ 9.84 µg/mL)
MIC (Rhizoctonia solani): 16 µM (≈ 39.4 µg/mL)
MIC [14]: 4 µM (≈ 9.84 µg/mL)
MIC [2]: 2 µM (≈ 4.92 µg/mL)
MIC (Ramulariopsis gossypii): 4 µM (≈ 9.84 µg/mL)
MIC (Fusarium oxysporum): ≥ 32 µM
MIC [15]: 2 µM (≈ 4.92 µg/mL)
MIC [9]: 4 µM (≈ 9.84 µg/mL)
MIC [16]: 6.67 µM (≈ 16.4 µg/mL)
MIC [17]: 8 µM (≈ 19.7 µg/mL)
MIC [18]: 2 µM (≈ 4.92 µg/mL)
MIC [19]: 3.33 µM (≈ 8.19 µg/mL)
MIC (Fusarium solani): ≥ 32 µM
MIC (Trichoderma asperellum): 16 µM (≈ 39.4 µg/mL)
Compound: CC(C)C[C@H](NC(=O)[C@H](C)NC(=O)[C@H](C)NC(=O)[C@@H](NC(=O)[C@H](CC(C)C)NC(=O)[C@H](CCCCN)NC(=O)[C@@H](NC(=O)[C@H](CC(C)C)NC(=O)[C@H](CCCN=C(N)N)NC(=O)[C@H](Cc1cnc[nH]1)NC(=O)[C@@H](N)CC(C)C)C(C)C)C(C)C)C(=O)N[C@@H](CC(C)C)C(=O)N[C@@H](CCCN=C(N)N)C(=O)NCC(=O)N[C@@H](Cc1ccc(O)cc1)C(=O)N[C@@H](C)C(=O)N[C@@H](CO)C(=O)N[C@@H](CCCCN)C(=O)N[C@H](C(=O)N[C@@H](CC(=O)O)C(=O)N[C@H](C(=O)N[C@@H](Cc1cnc[nH]1)C(N)=O)[C@@H](C)O)C(C)C [LHRLVKLVAALLRGYASKVDTH]

MIC [20]: 12.1 µM (≈ 32 µg/mL)
MIC [21]: ≥ 48.2 µM
MIC [22]: 48.2 µM (≈ 128 µg/mL)
MIC [23]: 12.1 µM (≈ 32 µg/mL)
MIC [24]: 12.1 µM (≈ 32 µg/mL)
MIC [25]: 12.1 µM (≈ 32 µg/mL)
MIC [26]: 24.1 µM (≈ 64 µg/mL)
MIC [27]: 12.1 µM (≈ 32 µg/mL)
MIC [7]: 12.1 µM (≈ 32 µg/mL)
MIC [28]: 3.02 µM (≈ 8 µg/mL)
MIC [29]: 6.03 µM (≈ 16 µg/mL)
MIC [30]: 12.1 µM (≈ 32 µg/mL)
MIC [31]: 24.1 µM (≈ 64 µg/mL)
MIC [32]: 24.1 µM (≈ 64 µg/mL)
MIC [33]: 24.1 µM (≈ 64 µg/mL)
MIC [34]: 24.1 µM (≈ 64 µg/mL)
MIC [35]: ≥ 48.2 µM
MIC [9]: 48.2 µM (≈ 128 µg/mL)
MIC [36]: 24.1 µM (≈ 64 µg/mL)
MIC [37]: ≥ 96.5 µM
MIC [38]: 24.1 µM (≈ 64 µg/mL)
MIC [39]: 12.1 µM (≈ 32 µg/mL)
MIC [40]: ≥ 48.2 µM
MIC (Escherichia coli): 48.2 µM (≈ 128 µg/mL)
MIC [41]: 6.03 µM (≈ 16 µg/mL)
MIC [42]: 12.1 µM (≈ 32 µg/mL)
MIC (Escherichia coli K-12): 24.1 µM (≈ 64 µg/mL)
Compound: CC(C)C[C@H](NC(=O)[C@H](CS)NC(=O)[C@H](CC(C)C)NC(=O)[C@H](CCCN=C(N)N)NC(=O)[C@H](Cc1c[nH]c2ccccc12)NC(=O)[C@@H]1CCCN1C(=O)[C@@H](NC(=O)[C@H](CCCN=C(N)N)NC(=O)[C@H](CCCN=C(N)N)NC(=O)[C@H](Cc1ccccc1)NC(=O)[C@H](CCCN=C(N)N)NC(=O)[C@H](C)NC(=O)[C@@H](NC(=O)[C@H](Cc1ccccc1)NC(=O)[C@H](CCCN=C(N)N)NC(=O)[C@@H](N)CC(N)=O)[C@@H](C)O)[C@@H](C)O)C(=O)N[C@@H](CCC(N)=O)C(=O)N[C@@H](Cc1ccccc1)C(=O)N[C@@H](CCCN=C(N)N)C(=O)N[C@@H](CCC(N)=O)C(=O)O [NRFTARFRRTPWRLCLQFRQ]
